Consider 23 molecules from patent US12344610B2, “APOL1 inhibitors and methods of use” (Maze Therapeutics, Inc., priority 2022, dated 2025).

For assay [1], the system named is Trypanosoma brucei Lister 427 VSG221 with APOL1 G2 recombinant protein. As to the kind of experiment: APOL1 G2 trypanosome cell rescue assay (Example B5). The following applies: geometric mean of at least 2 assay runs, † = single assay run. Type of assay: cell-based. Put shortly: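 Recombinant mature APOL1 (residues 28-398, His-tag removed, E. coli-expressed, refolded from inclusion bodies, DDM buffer) at […] added with 250 trypanosomes/well in modified HMI-9 media. Duplicate 11-point 2-fold compound series, 0.4% DMSO; 20 h at 37° C, 5% CO2, then CellTiter-Glo luminescence for viability.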

Assay [2] relates to HEK293 cells overexpressing APOL1 G2. As to the kind of experiment: APOL1 G2 HEK293 cell rescue assay (reversal of cell death caused by overexpression of APOL1). Type of assay: cell-based. Conditions: geometric mean of at least 2 assay runs, † = single assay run. In a few lines: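 EC50 is the half-maximal effective concentration for reversing cell death driven by APOL1 G2 overexpression in HEK293 cells. Reported as geometric mean of at least 2 runs on separate days, each run averaging duplicate wells per plate; some values from a single run.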

[3] abbreviates: Trypanosoma brucei, 20 h, read-out: APOL1 G2 Trypanosome Rescue EC50, Trypanosoma brucei Lister 427 VSG221 with APOL1 G2 recombinant protein, 20 hours, CellTiter-Glo.
[4] abbreviates: Homo sapiens, HEK293, HEK293 overexpressing APOL1 G2.

Like-named read-outs stand apart in the source and are kept apart here. A value given as a limit tells only on which side of the number the result lay.

Regarding `CC1(O)CC(CN2C(=O)CCc3cc(OCCN4CCC5(CC4)C(=O)Nc4ccc(Cl)cc45)cnc32)C1` (stereo not shown) [Compound 327, 5-chloro-1′-[2-({8-[(3-hydroxy-3-methylcyclobutyl)methyl]-7-oxo-5,6,7,8-tetrahydro-1,8-naphthyridin-3-yl}oxy)ethyl]-1,2-dihydrospiro[indole-3,4′-piperidin]-2-one], the results for the EC50 in assay [1] (setting [3]) and in assay [2] (setting [4]) were 13.4 nM and 28.9 nM, respectively.
On the same counts, the results for `Cc1nc(-c2ccc(OCCN3CCC4(CC3)C(=O)N(C)c3ccccc34)cc2)no1` [Compound 35, 1-methyl-1′-{2-[4-(5-methyl-1,2,4-oxadiazol-3-yl)phenoxy]ethyl}-1,2-dihydrospiro[indole-3,4′-piperidin]-2-one] are over 4000 nM and 574 nM.
On to `CC1(O)CC(c2ncc(OCCN3CCC4(CC3)C(=O)Nc3ccc(Cl)cc34)cn2)C1` (single isomer, unassigned) [Compound 393, 5-chloro-1′-[2-({2-[(cis) or (trans)-3-hydroxy-3-methylcyclobutyl]pyrimidin-5-yl}oxy)ethyl]-1,2-dihydrospiro[indole-3,4′-piperidin]-2-one], for which the EC50 in assay [1] (read-out: APOL1 G2 Trypanosome Rescue EC50, Trypanosoma brucei Lister 427 VSG221 with APOL1 G2 recombinant protein, 20 hours, CellTiter-Glo) came to 120 nM; in assay [2] (HEK293 overexpressing APOL1 G2), 80.5 nM.
In the case of `C[C@]1(O)C[C@@H](n2nnc3cc(OCCN4CCC5(CC4)C(=O)Nc4ccc(Cl)cc45)cc(C(F)(F)F)c32)C1` [Compound 434, 5-chloro-1′-[2-({1-[(cis)-3-hydroxy-3-methylcyclobutyl]-7-(trifluoromethyl)-1H-1,2,3-benzotriazol-5-yl}oxy)ethyl]-1,2-dihydrospiro[indole-3,4′-piperidin]-2-one], the EC50 in assay [2] (setting [4]) is 11.2 nM.
Still for that read-out and setting: the figure for `C[C@]1(O)C[C@@H](n2c(=O)oc3cc(OCCN4CCC5(CC4)C(=O)Nc4ccc(Cl)cc45)cnc32)C1` [Compound 394, 5-chloro-1′-[2-({2-oxo-3-[(cis)-3-hydroxy-3-methylcyclobutyl]-2H,3H-[1,3]oxazolo[4,5-b]pyridin-6-yl}oxy)ethyl]-1,2-dihydrospiro[indole-3,4′-piperidin]-2-one] is 24 nM.
Take `Cc1cc(OCCN2CCC3(CC2)C(=O)Nc2ccc(Cl)cc23)ccc1C(N)=O` [Compound 49, 4-(2-{5-chloro-2-oxo-1,2-dihydrospiro[indole-3,4′-piperidin]-1′-yl}ethoxy)-2-methylbenzamide]: the half-maximal effective concentration (EC50) was 109 nM in assay [1] (setting [3]) and 66.4 nM in assay [2] (setting [4]).
The corresponding values for `C[C@]1(O)C[C@@H](n2cc3cc(OCCN4CCC5(CC4)C(=O)Nc4ccc(Cl)cc45)cc(C(F)(F)F)c3n2)C1` [Compound 427, 5-chloro-1′-[2-({2-[(cis)-3-hydroxy-3-methylcyclobutyl]-7-(trifluoromethyl)-2H-indazol-5-yl}oxy)ethyl]-1,2-dihydrospiro[indole-3,4′-piperidin]-2-one] are 6.62 nM and 18.5 nM.
On the same counts, the results for `CS(C)(=O)=Nc1ccc(OCCN2CCC3(CC2)C(=O)Nc2ccc(C#N)cc23)cc1` [Compound 77, 1′-[2-(4-{[dimethyl(oxo)-λ^6-sulfanylidene]amino}phenoxy)ethyl]-2-oxo-1,2-dihydrospiro[indole-3,4′-piperidine]-5-carbonitrile] are 1450 nM and 2250 nM.
Take `CS(=O)(=O)c1ccc(OCCN2CCC3(CC2)C(=O)Nc2ccc(Br)cc23)cc1` [Compound 72, 5-bromo-1′-[2-(4-methanesulfonylphenoxy)ethyl]-1,2-dihydrospiro[indole-3,4′-piperidin]-2-one]: the figures for the EC50 in assay [1] (setting [3]) and in assay [2] (setting [4]) were 45.7 nM and 35.9 nM, respectively.
On the same counts, the results for `CN1C(=O)CCc2cc(OCCN3CCC4(CC3)C(=O)Nc3ccc(C#N)cc34)cnc21` [Compound 79, 1′-{2-[(8-methyl-7-oxo-5,6,7,8-tetrahydro-1,8-naphthyridin-3-yl)oxy]ethyl}-2-oxo-1,2-dihydrospiro[indole-3,4′-piperidine]-5-carbonitrile] are 293 nM and 207 nM.
`C[C@]1(O)C[C@@H](n2ncc3cc(OCCN4CCC5(CC4)C(=O)Nc4ccc(Cl)cc45)cc(C(F)(F)F)c32)C1` [Compound 464, 5-chloro-1′-[2-({1-[(cis)-3-hydroxy-3-methylcyclobutyl]-7-(trifluoromethyl)-1H-indazol-5-yl}oxy)ethyl]-1,2-dihydrospiro[indole-3,4′-piperidin]-2-one]: the EC50 in assay [2] (setting [4]) came to 5.02 nM.
Same read-out and setting: under `C[C@]1(O)C[C@@H](n2cnc3cc(OCCN4CCC5(CC4)C(=O)Nc4c(I)cc(Cl)cc45)cc(C(F)(F)F)c32)C1` [Compound 453, 5-chloro-7-iodo-1′-[2-({1-[(cis)-3-hydroxy-3-methylcyclobutyl]-7-(trifluoromethyl)-1H-1,3-benzodiazol-5-yl}oxy)ethyl]-1,2-dihydrospiro[indole-3,4′-piperidin]-2-one] stands 19.1 nM; under `C[C@]1(O)C[C@@H](n2cnc3cc(OCCN4CCC5(CC4)C(=O)Nc4ccc(Cl)cc45)cc(F)c32)C1` [Compound 454, 5-chloro-1′-(2-((7-fluoro-1-((cis)-3-hydroxy-3-methylcyclobutyl)-1H-benzo[d]imidazol-5-yl)oxy)ethyl)spiro[indoline-3,4′-piperidin]-2-one], 24.1 nM.
On to `CC(C)(CO)c1ncc(OCCN2CCC3(CC2)C(=O)Nc2ccc(Cl)cc23)cn1` [Compound 334, 5-chloro-1′-(2-{[2-(1-hydroxy-2-methylpropan-2-yl)pyrimidin-5-yl]oxy}ethyl)-1,2-dihydrospiro[indole-3,4′-piperidin]-2-one], for which, in assay [2] (setting [4]), the EC50 was found to be 110 nM.
Still for that read-out and setting: under `C[C@]1(O)C[C@@H](n2cnc3cc(OCCN4CCC5(CC4)C(=O)Nc4ccc(C(F)F)cc45)cc(C(F)(F)F)c32)C1` [Compound 450, 5-(difluoromethyl)-1′-[2-({1-[(cis)-3-hydroxy-3-methylcyclobutyl]-7-(trifluoromethyl)-1H-1,3-benzodiazol-5-yl}oxy)ethyl]-1,2-dihydrospiro[indole-3,4′-piperidin]-2-one] stands 5.5 nM; under `C[C@]1(O)C[C@@H](n2ncc3cc(OCCN4CCC5(CC4)C(=O)Nc4ccc(C#N)cc45)cc(C(F)(F)F)c32)C1` [Compound 465, 2-oxo-1′-[2-({1-[(cis)-3-hydroxy-3-methylcyclobutyl]-7-(trifluoromethyl)-1H-indazol-5-yl}oxy)ethyl]-1,2-dihydrospiro[indole-3,4′-piperidine]-5-carbonitrile], 8.86 nM.
The same measure, in the same setting: the figure for `CC(CO)(c1ncc(OCCN2CCC3(CC2)C(=O)Nc2ccc(Cl)cc23)cc1C(F)(F)F)S(C)(=O)=O` (stereo not shown) [Compound 401, 5-chloro-1′-(2-{[6-(1-hydroxy-2-methanesulfonylpropan-2-yl)-5-(trifluoromethyl)pyridin-3-yl]oxy}ethyl)-1,2-dihydrospiro[indole-3,4′-piperidin]-2-one] is 36.7 nM; for `Cc1nc2cc(OCCN3CCC4(CC3)C(=O)Nc3ccc(C#N)cc34)cc(C(F)(F)F)c2n1[C@H]1C[C@@](C)(O)C1` [Compound 443, 1′-[2-({2-methyl-1-[(cis)-3-hydroxy-3-methylcyclobutyl]-7-(trifluoromethyl)-1H-1,3-benzodiazol-5-yl}oxy)ethyl]-2-oxo-1,2-dihydrospiro[indole-3,4′-piperidine]-5-carbonitrile] it is 10.2 nM.
On the same count and under the same terms, under `C[C@]1(O)C[C@@H](n2cnc3cc(OCCN4CCC5(CC4)C(=O)Nc4ccc(C#N)cc45)cc(C(F)(F)F)c32)C1` [Compound 433, 1′-(2-((1-((cis)-3-hydroxy-3-methylcyclobutyl)-7-(trifluoromethyl)-1H-benzo[d]imidazol-5-yl)oxy)ethyl)-2-oxospiro[indoline-3,4′-piperidine]-5-carbonitrile] stands 14.8 nM.
Turning to `O=C1Nc2ccc(Cl)cc2C12CCN(CCOc1cnc(N3CC4(CC(O)C4)C3)nc1)CC2` [Compound 396, 5-chloro-1′-{2-[(2-{6-hydroxy-2-azaspiro[3.3]heptan-2-yl}pyrimidin-5-yl)oxy]ethyl}-1,2-dihydrospiro[indole-3,4′-piperidin]-2-one], the EC50 in assay [2] (setting [4]) was determined as 40.5 nM.
The same measure, in the same setting: under `Cc1nc2cc(OCCN3CCC4(CC3)C(=O)Nc3ccc(Cl)cc34)cc(C(F)(F)F)c2n1[C@H]1C[C@@](C)(O)C1` [Compound 442, 5-chloro-1′-[2-({2-methyl-1-[(cis)-3-hydroxy-3-methylcyclobutyl]-7-(trifluoromethyl)-1H-1,3-benzodiazol-5-yl}oxy)ethyl]-1,2-dihydrospiro[indole-3,4′-piperidin]-2-one] stands under 3.08 nM; under `CC(C)(O)c1ncc(OCCN2CCC3(CC2)C(=O)Nc2ccc(C#N)cc23)cc1C(F)(F)F` [Compound 411, 1′-(2-{[6-(2-hydroxypropan-2-yl)-5-(trifluoromethyl)pyridin-3-yl]oxy}ethyl)-2-oxo-1,2-dihydrospiro[indole-3,4′-piperidine]-5-carbonitrile], 22.6 nM; under `C[C@]1(O)C[C@@H](n2ccc3cc(OCCN4CCC5(CC4)C(=O)Nc4ccc(C(F)F)cc45)cnc32)C1` [Compound 350, 5-(difluoromethyl)-1′-[2-({1-[(cis)-3-hydroxy-3-methylcyclobutyl]-1H-pyrrolo[2,3-b]pyridin-5-yl}oxy)ethyl]-1,2-dihydrospiro[indole-3,4′-piperidin]-2-one], 18.8 nM.

One may read the EC50 as the midpoint of the concentration-response curve.
